In patent publication US5773573A, “HIV peptides” (priority 1994, dated 1998):
Residues, ends and D or L forms follow the SMILES beside them.

What was measured:
HIV = experiment: Cellular TCID Assay on PBMC of HIV infected patient given HEP1; assay type: in vivo; settings: patient three; for TCID, normalised data (day 1 = 100): oral HEP1 10 mg daily day 2-22
Procedure: (§1) The objective of this study was to determine in an HIV infected patient if the induction of immunological tolerance to HEP1 could reduce immune activation and HIV infection. The design of the first clinical experiment was to orally administer HEP1 to the patient in daily 10 mg doses (the lower end of the preferred dose range). This was then followed approximately three months later with a subcutaneous administration of HEP1 at a higher dose of 140 mg. To assess the therapeutic benefit of HEP1, the following disease progression markers were measured by taking blood samples before, during and after each trial and determining: HIV levels by a p24 antigen assay, HIV infectivity by a cellular TCID assay and immune activation by quantitating levels of various lymphocytes.
Cellular TCID is a technique that measures the relative amount of viral load within cells. Within four hours of a sample being taken from the HIV infected patient, 10^6 viable PBMC from the sample were obtained by centrifugation of the anticoagulated blood over Ficoll-Hypaque lymphocyte separation medium. A serial dilution of the patients cells was set up in a 24 well plate in decreasing amounts (1:1, 1:4, 1:16, 1:64 and 1:256 and a negative control using 0.9 ml special media (RPMI-1640) supplemented with 15% fetal calf serum and 10% interleukin 2. Infected cells were then cocultivated with 10^6 PBMC derived from an uninfected human donor that had been stimulated for 24-48 hours with phytohaemagglutin (PHA) to activate the cells to make them susceptible to infection by HIV. The cocultures were subsequently monitored for the presence of p24 antigen in the supernatant fluid twice weekly for up to 14 days, during this period the plates were spun on days 4,7,11 and 14 and then a 50% medium change was performed. […]
(§2) The following markers of HIV disease progression were assayed: p24Ag (the concentration of HIV p24 protein in picogram/ml in the blood), TCID (the infectivity of the HIV in the cells of blood sample measured by an in vitro cell culture assay in which a serial dilution of the sample was mixed with activated uninfected PBMC and the level of HIV infection determined by p24Ag assay), total white count (immune activation measured by the number of white cells per mm^3), CD4 (the number of CD4 positive cells per mm^3), CD8 (the number of CD8 positive cells per mm^3), NK (the number of Natural Killer cells per mm^3), Lymphocytes (the number of cells per mm^3), Monocytes (the number of cells per mm^3), and Granulocytes (the number of cells per mm^3). Normalised data was calculated by dividing each data point by the value of its data series on day 1 of the trail and multiplying by 100.

HIV p24 antigen = experiment: p24Ag Assay on blood samples of HIV infected patient given HEP1; assay type: in vivo; settings: patient three
Procedure: as §1
p24Ag is a marker of HIV infection as well as a predictor of HIV disease progression. The p24Ag assay measures p24 antigen from the core of HIV and is an immunoassay using murine monoclonal antibody coated onto microwell strips. The assay detects HIV in plasma, serum or tissue culture medium. If present, the antigen binds to the antibody-coated microwells. The bound antigen is recognised by biotinylated antibodies to HIV which react with conjugated strepavidin-horseradish peroxidase. Colour develops from the reaction of the peroxidase with hydrogen peroxidase in the presence of tetramethylbenzidine (TMB) substrate. Specimens which are HIV p24Ag positive can be quantitated by setting up a standard curve using serial dilutions of the Antigen Reagent. The assay is not accurate below 30 picograms per ml.
as §2

[1] = oral administration of HEP1 (FIG. 2)
[2] = orally administered HEP1 10 mg daily
[3] = oral HEP1 10 mg daily day 2-22, day 1, before first dose
[4] = oral HEP1 10 mg daily day 2-22, day 7, during treatment
[5] = oral HEP1 10 mg daily day 2-22, day 28, after treatment

CC(C)[C@H](NC(=O)[C@@H](NC(=O)[C@H](CCC(=O)O)NC(=O)[C@H](CCCNC(=N)N)NC(=O)[C@H](CCCNC(=N)N)NC(=O)[C@H](CCCCN)NC(=O)[C@H](CCCCN)NC(=O)[C@H](CCC(=O)O)NC(=O)[C@@H](N)[C@@H](C)O)[C@@H](C)O)C(=O)N[C@@H](CCC(=O)O)C(=O)N[C@@H](CCCNC(=N)N)C(=O)N[C@@H](CCC(=O)O)C(=O)N[C@@H](CCCCN)C(=O)N[C@@H](CCC(=O)O)C(=O)O [HEP1, NH2 ThrGluLysLysArgArgGluThrValGluArgGluLysGluCOOH] (H-TEKKRRETVEREKE-OH)
TCID, normalised data (day 1 = 100) (HIV; day 1, before first dose): 100 | TCID, normalised data (day 1 = 100) (HIV; day 28, after treatment): 6 | HIV infectivity as measured by a TCID assay, course (HIV; [1]): decline | reduction of the infectivity of HIV as measured by TCID (HIV; [2]): 16 X | p24Ag (HIV p24 antigen; [3]): 71 picogram/ml | p24Ag, normalised data (day 1 = 100) (HIV p24 antigen; [3]): 100 | p24Ag (HIV p24 antigen; [4]): 44 picogram/ml | p24Ag, normalised data (day 1 = 100) (HIV p24 antigen; [4]): 62 | p24Ag (HIV p24 antigen; [5]): 38 picogram/ml | p24Ag, normalised data (day 1 = 100) (HIV p24 antigen; [5]): 54 | HIV virus particles as measured by p24Ag levels, course (HIV p24 antigen; [1]): decline | persistence of the effect on p24Ag and TCID after treatment (HIV p24 antigen; [2]): 7 days | reduction of viral load as measured by p24Ag (HIV p24 antigen; [2]): 46% | p24Ag (HIV p24 antigen; single subcutaneous HEP1 dose on day 1, day-91, end of oral study): 38 picogram/ml
